Where two headings read alike, the source gives them in different places.
Biological target: human Cav2.2 (Homo sapiens, UniProt Q00975)
Assay: Assessment of calcium channel activity using FLIPR (Ca2+ influx in IMR32 cells)
Type: cell-based
Method: (i) In Vitro Methods—Assessment of Calcium Channel Activity Using FLIPR:
The IMR32 cells were maintained in MEM media containing 10% (v/v) FBS, 1% (v/v) antibiotic/antimitotic, 1% (v/v) sodium pyruvate and 1% (v/v) MEM NEAA. Following dissociation in 0.05% (v/v) trypsin/EDTA, cells were seeded into black 1×96-well plates (Corning Cellbind) at a density of 1−1.2×10^5 cells/well and incubated in the maintenance media above for 48 hours at 37° C. […] To determine the IC50 values, the percent inhibition of the compound at each concentration was determined relative to the activity in the absence of inhibitor, and data was fitted using non-linear regression sigmoidal dose response curve analysis with GraphPad Prism®.

[1] = read-out: IC50 (μM) or percent inhibition (* indicates 3 minute incubation, otherwise 60 minute), IC50, 60 minute pre-incubation with compound, IMR32 cells, 80 mM KCl depolarization

Chain of human Cav2.2 (Q00975 whole entry): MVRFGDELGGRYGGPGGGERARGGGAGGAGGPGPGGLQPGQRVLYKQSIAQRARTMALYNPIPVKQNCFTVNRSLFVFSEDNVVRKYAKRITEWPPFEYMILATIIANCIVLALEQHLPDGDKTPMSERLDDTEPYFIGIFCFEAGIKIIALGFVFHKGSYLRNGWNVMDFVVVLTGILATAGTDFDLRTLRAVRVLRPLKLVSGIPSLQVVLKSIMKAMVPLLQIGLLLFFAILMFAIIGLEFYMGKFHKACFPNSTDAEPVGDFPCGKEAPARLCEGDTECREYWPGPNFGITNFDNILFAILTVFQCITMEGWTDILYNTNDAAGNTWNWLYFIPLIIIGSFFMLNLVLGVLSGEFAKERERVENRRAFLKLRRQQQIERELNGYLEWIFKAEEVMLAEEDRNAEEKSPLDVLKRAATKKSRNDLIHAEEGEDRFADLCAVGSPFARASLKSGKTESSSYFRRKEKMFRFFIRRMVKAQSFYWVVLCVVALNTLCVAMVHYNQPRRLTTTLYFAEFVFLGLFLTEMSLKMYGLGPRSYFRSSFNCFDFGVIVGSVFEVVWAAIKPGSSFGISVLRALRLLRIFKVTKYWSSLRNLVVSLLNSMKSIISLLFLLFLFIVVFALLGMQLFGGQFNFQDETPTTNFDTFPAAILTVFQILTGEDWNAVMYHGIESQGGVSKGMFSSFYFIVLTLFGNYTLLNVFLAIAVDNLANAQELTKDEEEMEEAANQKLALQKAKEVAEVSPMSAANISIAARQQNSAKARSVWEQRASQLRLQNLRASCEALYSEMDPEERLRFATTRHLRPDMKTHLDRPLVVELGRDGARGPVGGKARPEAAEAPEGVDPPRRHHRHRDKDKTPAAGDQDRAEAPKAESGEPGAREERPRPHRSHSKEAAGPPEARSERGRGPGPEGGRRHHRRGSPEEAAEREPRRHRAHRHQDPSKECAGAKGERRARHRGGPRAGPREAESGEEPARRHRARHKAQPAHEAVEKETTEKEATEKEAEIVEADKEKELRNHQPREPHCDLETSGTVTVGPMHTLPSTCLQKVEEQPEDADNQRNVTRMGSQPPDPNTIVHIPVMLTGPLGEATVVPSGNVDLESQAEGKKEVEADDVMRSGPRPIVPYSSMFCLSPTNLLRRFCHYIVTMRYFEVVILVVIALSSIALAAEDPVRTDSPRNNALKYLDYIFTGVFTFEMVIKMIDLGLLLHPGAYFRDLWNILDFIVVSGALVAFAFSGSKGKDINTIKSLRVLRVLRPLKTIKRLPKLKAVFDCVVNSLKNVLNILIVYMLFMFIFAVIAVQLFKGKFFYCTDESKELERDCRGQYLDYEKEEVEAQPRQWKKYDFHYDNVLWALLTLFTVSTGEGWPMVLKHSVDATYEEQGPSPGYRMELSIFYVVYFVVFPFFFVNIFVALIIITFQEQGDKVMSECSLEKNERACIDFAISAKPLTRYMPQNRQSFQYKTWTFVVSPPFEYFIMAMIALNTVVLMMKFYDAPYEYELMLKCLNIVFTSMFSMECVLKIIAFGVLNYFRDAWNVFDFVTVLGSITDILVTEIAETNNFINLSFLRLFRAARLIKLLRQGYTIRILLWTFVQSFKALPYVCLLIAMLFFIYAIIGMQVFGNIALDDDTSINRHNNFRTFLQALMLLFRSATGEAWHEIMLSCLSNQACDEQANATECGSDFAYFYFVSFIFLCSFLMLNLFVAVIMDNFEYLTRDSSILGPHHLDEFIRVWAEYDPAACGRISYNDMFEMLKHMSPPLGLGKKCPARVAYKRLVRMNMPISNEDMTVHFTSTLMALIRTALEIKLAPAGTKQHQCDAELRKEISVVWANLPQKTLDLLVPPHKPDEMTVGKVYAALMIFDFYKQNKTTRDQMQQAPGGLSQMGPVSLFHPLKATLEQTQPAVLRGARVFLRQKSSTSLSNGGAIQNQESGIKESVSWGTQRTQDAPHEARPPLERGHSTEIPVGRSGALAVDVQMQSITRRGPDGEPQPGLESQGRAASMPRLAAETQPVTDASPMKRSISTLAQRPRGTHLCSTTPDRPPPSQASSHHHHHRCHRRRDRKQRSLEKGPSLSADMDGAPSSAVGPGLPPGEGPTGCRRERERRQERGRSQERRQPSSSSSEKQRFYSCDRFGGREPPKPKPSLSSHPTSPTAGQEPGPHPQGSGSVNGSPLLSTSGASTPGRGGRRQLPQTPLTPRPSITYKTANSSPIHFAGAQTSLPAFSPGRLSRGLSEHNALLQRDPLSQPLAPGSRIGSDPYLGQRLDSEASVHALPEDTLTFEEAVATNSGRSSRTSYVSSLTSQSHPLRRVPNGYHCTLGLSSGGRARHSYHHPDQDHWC
Chain of human Cav2.2 (P54289 25-956 partner limits assumed): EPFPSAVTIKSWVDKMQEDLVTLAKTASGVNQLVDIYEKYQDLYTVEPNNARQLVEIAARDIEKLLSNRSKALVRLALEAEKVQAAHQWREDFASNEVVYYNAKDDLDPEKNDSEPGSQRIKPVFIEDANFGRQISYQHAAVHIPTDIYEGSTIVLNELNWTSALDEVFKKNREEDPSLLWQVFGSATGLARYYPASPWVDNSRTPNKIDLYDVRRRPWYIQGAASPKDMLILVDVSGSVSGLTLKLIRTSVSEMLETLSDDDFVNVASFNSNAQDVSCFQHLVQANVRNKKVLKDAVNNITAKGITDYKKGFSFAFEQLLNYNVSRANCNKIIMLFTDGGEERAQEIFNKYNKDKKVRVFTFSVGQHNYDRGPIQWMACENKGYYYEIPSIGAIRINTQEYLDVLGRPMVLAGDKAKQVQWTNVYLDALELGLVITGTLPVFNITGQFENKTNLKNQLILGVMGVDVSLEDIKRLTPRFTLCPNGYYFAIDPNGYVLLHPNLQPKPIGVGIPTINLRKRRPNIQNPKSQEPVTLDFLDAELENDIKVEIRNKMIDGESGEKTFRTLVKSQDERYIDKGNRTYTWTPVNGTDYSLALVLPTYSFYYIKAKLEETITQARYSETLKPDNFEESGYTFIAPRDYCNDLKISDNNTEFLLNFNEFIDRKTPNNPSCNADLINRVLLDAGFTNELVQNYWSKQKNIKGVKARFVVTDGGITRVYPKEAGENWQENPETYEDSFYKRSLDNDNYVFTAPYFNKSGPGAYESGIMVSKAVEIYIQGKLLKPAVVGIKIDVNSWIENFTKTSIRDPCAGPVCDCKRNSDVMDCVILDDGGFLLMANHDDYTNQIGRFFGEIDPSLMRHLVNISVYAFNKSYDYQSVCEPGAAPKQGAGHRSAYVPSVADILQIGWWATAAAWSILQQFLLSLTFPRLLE
Chain of human Cav2.2 (P54289 957-1103 partner limits assumed): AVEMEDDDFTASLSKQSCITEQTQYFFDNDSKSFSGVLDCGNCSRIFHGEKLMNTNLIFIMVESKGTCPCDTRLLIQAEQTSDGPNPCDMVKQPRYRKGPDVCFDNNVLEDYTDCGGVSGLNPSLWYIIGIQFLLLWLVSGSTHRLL
Chain of human Cav2.2 (P54284 whole entry partner): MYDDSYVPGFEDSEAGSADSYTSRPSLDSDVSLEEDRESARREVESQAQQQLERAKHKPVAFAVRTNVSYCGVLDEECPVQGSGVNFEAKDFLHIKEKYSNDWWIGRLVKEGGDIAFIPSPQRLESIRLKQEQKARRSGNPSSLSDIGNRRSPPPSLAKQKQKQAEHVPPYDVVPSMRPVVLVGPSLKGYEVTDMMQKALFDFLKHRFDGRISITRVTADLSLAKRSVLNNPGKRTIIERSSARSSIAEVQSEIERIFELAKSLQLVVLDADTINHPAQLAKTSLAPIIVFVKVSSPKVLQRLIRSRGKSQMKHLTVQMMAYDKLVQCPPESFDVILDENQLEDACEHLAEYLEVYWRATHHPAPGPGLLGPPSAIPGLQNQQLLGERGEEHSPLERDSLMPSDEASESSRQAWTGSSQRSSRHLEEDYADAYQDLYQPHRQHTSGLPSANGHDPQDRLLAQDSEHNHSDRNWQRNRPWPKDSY

IC50	IC50 [1]	Compound
26.4 µM		CN[C@@H](CC(C)C)C(=O)N[C@H]1CC[C@@H]2CN(c3nnc(C(F)(F)F)s3)C[C@@H]21 [Example 734, N^2-methyl-N-{(3aR,4S,6aS)-2-[5-(trifluoromethyl)-1,3,4-thiadiazol-2-yl]octahydrocyclopenta[c]pyrrol-4-yl}-L-leucinamide]
2.16 µM		CN(C)[C@@H](CC1CC1)C(=O)N[C@H]1CC[C@@H]2CN(c3ccc(OC(F)(F)F)cc3)C[C@@H]21 [Example 777, 3-cyclopropyl-N^2,N^2-dimethyl-N-{(3aR,4S,6aS)-2-[4-(trifluoromethoxy)phenyl]octahydrocyclopenta[c]pyrrol-4-yl}-L-alaninamide]
> 30 µM		O=C(N[C@H]1CC[C@@H]2CN(c3ccc(OC(F)(F)F)cc3)C[C@@H]21)[C@@H]1C[C@@H](F)CN1 [Example 631, (4R)-4-fluoro-N-{(3aR,4S,6aS)-2-[4-(trifluoromethoxy)phenyl]octahydrocyclopenta[c]pyrrol-4-yl}-L-prolinamide]
> 30 µM		COc1cccc(N2C[C@H]3CC[C@H](NC(=O)[C@@H]4C[C@@H](F)CN4)[C@H]3C2)c1 [Example 645, (4R)-4-fluoro-N-[(3aR,4S,6aS)-2-(3-methoxyphenyl)octahydrocyclopenta[c]pyrrol-4-yl]-L-prolinamide]
0.87 µM		FC(F)(F)c1cccc(N2C[C@H]3CC[C@H](NCc4cc5ccncc5s4)[C@H]3C2)n1 [Example 721, (3aR,4S,6aS)-N-(thieno[2,3-c]pyridin-2-ylmethyl)-2-[6-(trifluoromethyl)pyridin-2-yl]octahydrocyclopenta[c]pyrrol-4-amine]
	17.6 µM	CC(C)C[C@@H](C(=O)N[C@@H]1CC[C@H]2CNC[C@H]21)N(C)C(=O)OC(C)(C)C [Example 349, tert-butyl methyl((S)-4-methyl-1-((3aS,4R,6aR)-octahydrocyclopenta[c]pyrrol-4-ylamino)-1-oxopentan-2-yl)carbamate]
5.36 µM		CCCC(C(=O)NC1CCC2CN(Cc3ccc(F)cc3)CC21)N(C)C(=O)OC(C)(C)C (single isomer, unassigned) [Example 315]
	8.65 µM	CCC[C@H](NC)C(=O)N[C@@H]1CC[C@H]2CN(S(=O)(=O)c3ccc(F)cc3)C[C@H]21 [Example 403, N^1-{(3aS,4R,6aR)-2-[(4-fluorophenyl)sulfonyl]octahydrocyclopenta[c]pyrrol-4-yl}-N^2-methyl-L-norvalinamide]
	3.18 µM	FC(F)(F)c1cccc(CN2C[C@@H]3CC[C@H](N(C4CC4)C4CC4)[C@@H]3C2)c1 (relative stereo) [Example 196, (3aS*,4S*,6aR*)-N,N-dicyclopropyl-2-[3-(trifluoromethyl)benzyl]octahydrocyclopenta[c]pyrrol-4-amine]
2.57 µM		O=C(N[C@H]1CC[C@@H]2CN(c3cccc(C(F)(F)F)c3)C[C@@H]21)[C@@H]1C[C@@H](F)CN1 [Example 617, (4R)-4-fluoro-N-{(3aR,4S,6aS)-2-[3-(trifluoromethyl)phenyl]octahydrocyclopenta[c]pyrrol-4-yl}-L-prolinamide]
	1.49 µM	CC(C)N[C@@H](CC1CCCCC1)C(=O)N[C@H]1CC[C@@H]2CN(S(=O)(=O)c3ccc(C(F)(F)F)cc3)C[C@@H]21 [Example 485, 3-cyclohexyl-N^2-isopropyl-N^1-((3aR,4S,6aS)-2-{[4-(trifluoromethyl)phenyl]sulfonyl}octahydrocyclopenta[c]pyrrol-4-yl)-L-alaninamide]
> 30 µM		CN[C@@H](CC(C)C)C(=O)N[C@H]1CC[C@@H]2CN(Cc3ccccc3)C[C@@H]21 [Example 348, N^1-[(3aR,4S,6aS)-2-benzyloctahydrocyclopenta[c]pyrrol-4-yl]-N^2-methyl-L-leucinamide]
> 30 µM		CCC[C@H](NC)C(=O)N[C@@H]1CC[C@@H]2CN(Cc3ccccc3)C[C@@H]21 [Example 363, N^1-[(3aR,4R,6aS)-2-benzyloctahydrocyclopenta[c]pyrrol-4-yl]-N^2-methyl-L-norvalinamide]
3.82 µM		O=S(=O)(N[C@H]1CC[C@@H]2CN(c3cccc(C(F)(F)F)n3)C[C@@H]21)c1ccc(F)cc1 [Example 705, 4-fluoro-N-{(3aR,4S,6aS)-2-[6-(trifluoromethyl)pyridin-2-yl]octahydrocyclopenta[c]pyrrol-4-yl}benzenesulfonamide]
	0.88 µM	CC(C)C(C(=O)N[C@H]1CC[C@@H]2CN(CCC(c3ccc(F)cc3)c3ccc(F)cc3)C[C@@H]21)c1ccccc1 (stereo partly drawn) [Example 117, N-{(3aR,4S,6aS)-2-[3,3-bis(4-fluorophenyl)propyl]octahydrocyclopenta[c]pyrrol-4-yl}-3-methyl-2-phenylbutanamide]
1.93 µM		CC(C)C[C@@H](C(=O)N[C@H]1CC[C@@H]2CN(Cc3ccc(C(F)(F)F)cc3)C[C@@H]21)N(C)C(=O)OC(C)(C)C [Example 308, tert-butyl methyl((S)-4-methyl-1-oxo-1-((3aR,4S,6aS)-2-(4-(trifluoromethyl)benzyl)octahydrocyclopenta[c]pyrrol-4-ylamino)pentan-2-yl)carbamate]
> 30 µM		COc1ccc(N2C[C@H]3CC[C@H](NC(=O)[C@@H]4C[C@@H](F)CN4)[C@H]3C2)cc1 [Example 653, (4R)-4-fluoro-N-[(3aR,4S,6aS)-2-(4-methoxyphenyl)octahydrocyclopenta[c]pyrrol-4-yl]-L-prolinamide]
	1.17 µM	CC(C)C(C(=O)N[C@H]1CC[C@@H]2CN(CCC(c3ccccc3)c3ccccc3)C[C@@H]21)c1ccccc1 (stereo partly drawn) [Example 116, N-[(3aR,4S,6aS)-2-(3,3-diphenylpropyl)octahydrocyclopenta[c]pyrrol-4-yl]-3-methyl-2-phenylbutanamide]
	1.15 µM	O=C(CCC(c1ccc(F)cc1)c1ccc(F)cc1)N[C@H]1CC[C@H]2CN(Cc3cccc(C(F)(F)F)c3)C[C@H]21 (relative stereo) [Example 134, 4,4-bis(4-fluorophenyl)-N-{(3aS*,4S*,6aR*)-2-[3-(trifluoromethyl)benzyl]octahydrocyclopenta[c]pyrrol-4-yl}butanamide]
22.3 µM		CN[C@@H](CC(C)C)C(=O)N[C@H]1CC[C@@H]2CN(c3ccc(C(F)(F)F)nn3)C[C@@H]21 [Example 724, N^2-methyl-N-{(3aR,4S,6aS)-2-[6-(trifluoromethyl)pyridazin-3-yl]octahydrocyclopenta[c]pyrrol-4-yl}-L-leucinamide]
1.26 µM		CN[C@@H](CC(C)C)C(=O)N[C@H]1CC[C@@H]2CN(c3cccc(F)c3F)C[C@@H]21 [Example 730, N-[(3aR,4S,6aS)-2-(2,3-difluorophenyl)octahydrocyclopenta[c]pyrrol-4-yl]-N^2-methyl-L-leucinamide]
	1.18 µM	CC(C)C(C(=O)N[C@H]1CC[C@@H]2CN(Cc3cccc(C(F)(F)F)c3)C[C@@H]21)c1ccccc1 (stereo partly drawn) [Example 88, 3-methyl-2-phenyl-N-{(3aR,4S,6aS)-2-[3-(trifluoromethyl)benzyl]octahydrocyclopenta[c]pyrrol-4-yl}butanamide]
1.49 µM		Cc1c(CN[C@H]2CC[C@@H]3CN(c4cccc(C(F)(F)F)n4)C[C@@H]32)[nH]c2ccc(F)cc12 [Example 667, (3aR,4S,6aS)-N-[(5-fluoro-3-methyl-1H-indol-2-yl)methyl]-2-[6-(trifluoromethyl)pyridin-2-yl]octahydrocyclopenta[c]pyrrol-4-amine]

Compound	IC50	IC50 [1]
(3aR,4S,6aS)-N-[(4-chloro-1H-indol-3-yl)methyl]-2-[6-(trifluoromethyl)pyridin-2-yl]octahydrocyclopenta[c]pyrrol-4-amine [Example 692]		0.99 µM

From patent publication US8691865B2 (AbbVie Inc., priority 2008, dated 2014)
